Like-named read-outs stand apart in the source and are kept apart here.
Legend:
[1] = MTHFR677 tt, retested 6 months later
Text: (§1) The test subject was given a fasting insulin test.

[2] = MTHFR677 tt, retested 6 months later; remark: listed apart in the source
Text: The HbA1C test is a common blood test used to diagnose type 1 and type 2 diabetes and then to gauge how well the subject is managing diabetes or the subjects risk of becoming diabetic. The A1C test result reflects the subjects average blood sugar level for the past two to three months. Specifically, the A1C test measures what percentage of the subject's hemoglobin is coated with sugar (glycated). […] According to the American Diabetes Association guidelines a HbA1C of between 4 and 5.6% falls within normal parameters, HbA1C between 5.7 and 6.4% are considered slightly elevated and indicate a prediabetic state as where HbA1C of greater than 6.5% is considered diabetic.
as §1

For `CN1c2c([nH]c(N)nc2=O)NC[C@@H]1CNc1ccc(C(=O)N[C@@H](CCC(=O)O)C(=O)O)cc1` [L-methylfolate], which fasting insulin level ([1]; Example 1: person, 3 mgs L-methylfolate with 2 mgs methyl B12 once daily, before treatment 40 μU/ml) is on record?
The fasting insulin level was 9 μU/ml.

What about the fasting insulin level ([1]; Example 2: person, 15 mgs L-methylfolate with 2 mgs methyl B12 once daily, before treatment 100 μU/ml) of the same compound?
The fasting insulin level was 11 μU/ml.

What about the HbA1C ([2]; Example 1: person, 3 mgs L-methylfolate with 2 mgs methyl B12 once daily, before treatment 4.9%) of the same compound?
Its HbA1C is 4.9%.

And the HbA1C ([2]; Example 2: person, 15 mgs L-methylfolate with 2 mgs methyl B12 once daily, before treatment 5.3%)?
The HbA1C was 5.3%.
